The results in this text go back to US6566047B1, “Method for identifying neurite-growth promoting agents” (The Regents of the University of Colorado, priority 1998, dated 2003).

One data set deals with GCPs plated on laminin. Briefly: GCP release (detachment) assay on laminin. Also on record: species or system rat. On the procedure:
GCP Release Assay. Petri dishes (35 mm diameter) were coated with 10 μg mouse laminin in PBS by incubation at room temperature for 60 min with shaking. Dishes were subsequently rinsed three times with PBS to remove unbound laminin and then blocked with 5% non-fat dry milk (Carnation) in PBS for 30 min. After three PBS rinses to remove blocking agent, the dishes were ready for the addition of GCPs. […] After incubation for five min at 37° C. this buffered GCP preparation was added to the laminincoated petri dishes. Contact with the substratum was facilitated by centrifuging the dishes for 15 min at 5000 g (Beckman JS5.2 rotor) at room temperature, followed by incubation at 37° C. to allow adhesion site formation. After 10 min, unattached GCPs were removed by rinsing the dishes twice with 1× modified Krebs buffer. Plated GCPs were then challenged with repellent factor (TRAP or thrombin) for 20 min at 37° C. The supernatant containing released GCPs was collected and centrifuged for protein determination of the pellet. GCPs that remained attached after repellent treatment were removed with 5% sodium dodecyl sulfate (SDS) for protein assay. Protein was measured according to Lowry et al. (1951) as modified by Peterson (1983). Results of these experiments were expressed as the percentage of released versus total GCP protein in the assay.

A further data set deals with protein kinase C (PKC). Briefly: MARCKS phosphorylation by PKC in isolated GCPs. In kind it is biochemical, rat. Conditions: isolated growth cones. From the text: FIG. 7A. Thrombin stimulates MARCKS phosphorylation in a 12-LOX-dependent manner. FIG. 7B. 12(S)-HETE stimulates MARCKS phosphorylation by PKC in isolated GCPs. […] Polypeptides were resolved by SDS-PAGE. MARCKS phosphorylation was quantified by phosphorimaging.

A further data set has as its system MAT-Lu cells. The data set can be described thus: Boyden chamber motility assay, MAT-Lu cells. Type of data set: cell-based, rat. Conditions: for Mat-Lu cells crossing filter in % of control +/− SEM: 4 hr, thrombin 200 nM, CDC 126 nM. On the procedure:
Boyden Chamber Motility Assays. Disposable transwells (Coming Costar, Cambridge, Mass.) of 6.5 mm diameter and 8 μm pore size were coated with 5 μg/ml laminin on both sides. The membranes were washed twice with Hank's balanced salt solution (HBSS) and then pre-incubated with growth medium containing 10% fetal bovine serum. Trypsinized cells (5×10^4) were plated into the upper well. After 1 hour the upper chamber was washed twice with HBSS, filled with serum-free medium and moved to a new lower chamber, also filled with serum-free medium, with or without thrombin and/or 0.75 nM insulin-like growth factor-1 (IGF-1). After incubation for 4 hrs, cells on the membrane were fixed and stained with a Diff-Quick kit (Baxter Scientific Products). Cells on the upper side were scraped off, the membranes were removed, mounted onto microscope slides and analyzed. Each filter was scanned twice at right angles under the light microscope with a 16×phase contrast objective lens. A continuous series of 20 frames for each filter was digitized using a high-resolution CCD camera (Kodak) and stored in a Power Macintosh computer. The two most peripheral pairs of frames from each scan were deleted so that 12 frames were analyzed for each filter. Cells that had crossed the membrane were counted and tabulated. The sum of the cells counted in the twelve frames was an individual data point.

In a further data set the test system is PC-3M-MM2 cells. Briefly: Boyden chamber assay, PC-3M-MM2 cells. Type of data set: cell-based, human. As for the experimental part: In addition, seven human prostate carcinoma cell lines were used (see Table 2). One or two cell lines of medium to high motility (e.g., PC-3M-MM2 and DU145) are first selected. The PC-3M-MM2 cells disperse rapidly in the dish and, like the MAT-Lu cells, never form colonies. Cells are grown according to standard procedures. Large numbers of aliquots of all cancer cell lines arc collected and frozen in order to avoid the use of higher passage numbers in later experiments. As the experimentation progresses, the motility and morphology of the cells is re-checked to avoid distortion of results by changes in phenotype. For experimental use, cells are kept well below confluence. In order to test for potential effects of the growth matrix, cells are grown for selected experiments not only on serum-conditioned tissue culture plastic but also on laminin, collagen, fibronectin or Matrigel (Life Technologies/GIBCO-BRL, Gaitheresberg, Md.; Becton Dickinson/Collaborative Biomedical Products, Bedford Mass.). […] The motility, of all cells is assessed quantitatively using the (long-term) Boyden chamber assay as described in Boyden, J. Exp. Med. 115:453-466 (1962), incorporated herein by reference. […] The relative number of cells moving within 3-6 hours across the membrane from the upper well is counted in the presence or absence of IGF-1 in the lower chamber.

In the next data set the test system is phospholipase C. The note with it: thrombin stimulation as for PLA2.
Data set [1] concerns cPLA2. The data set can be described thus: cPLA2 activation in AT-2 cells. In kind it is biochemical, rat. On the procedure:
FIG. 9. Thrombin activation of cPLA2 in AT-2 cells incubated with either ^14C-AA-PI, -PC or -PE as substrate, for 10 min at 37° C. Released AA and diacylglycerol were isolated and counted.

Data set [2] deals with cPLA2. The data set can be described thus: PLA2 activity (14C-AA release) in MAT-Lu cells. Conditions: thrombin 200 nM. In kind it is biochemical, rat.
Method: MAT-Lu cells were plated at a density of 0.5×10^6 cells per flask (T-75) and grown as detailed above to approximately 25% confluency. On the day before the experiments, the serum level in the medium was dropped to 1%. Cells were fed with fresh 1% serum-medium 4 hrs prior to harvest. For harvesting, cells were rinsed with Ca^++,Mg^++-free HBSS, covered with 2 ml cold Ca^++-free modified Krebs buffer (220 mM sucrose, 50 mM NaCl, 5 mM KCl, 22 mM HEPES, 10 mM glucose. 1.2 mM NaH2PO4 and 1.2 mM MgCl2, pH 7.3), and placed on ice. Cells were scraped off, pelleted for 5 min at 200 rpm and re-suspended in a minimal volume of Krebs buffer. Aliquots were used to determine protein concentration (Biorad Assay) and phopholipase activity. To measure PLA2 activity 10-12 μg of cell protein was incubated with or without thrombin for 10 min on ice, ^14C-AA-labeled phospholipid substrate (7 μM. 40-60 mCi/mmol) was added, and the mixture was transferred to 37° for 20 min. The reaction was stopped by adding cold cliloroform/methanol (1:2 v/v). Lipid extraction followed by thin-layer chromatography (Negre-Aminou et al., J Neurochem 67:2599-2608 (1996)) isolated the reaction product (identified by co-migration with AA standard), which was then scraped off the plates and analyzed in a scintillation spectrometer (Beckman). In some experiments, especially those involving ^14C-AA-phosphatidylinositol as substrate, the diacylglycerol-containing band (identified by co-migration of standard) also was scraped and counted in order to measure phospholipase C (PLC) activity.

Read-outs that look alike come from different tables or passages of the source.

Method for phospholipase C: MAT-Lu cells were plated at a density of 0.5×10^6 cells per flask (T-75) and grown as detailed above to approximately 25% confluency. On the day before the experiments, the serum level in the medium was dropped to 1%. Cells were fed with fresh 1% serum-medium 4 hrs prior to harvest. For harvesting, cells were rinsed with Ca^++,Mg^++-free HBSS, covered with 2 ml cold Ca^++-free modified Krebs buffer (220 mM sucrose, 50 mM NaCl, 5 mM KCl, 22 mM HEPES, 10 mM glucose. 1.2 mM NaH2PO4 and 1.2 mM MgCl2, pH 7.3), and placed on ice. Cells were scraped off, pelleted for 5 min at 200 rpm and re-suspended in a minimal volume of Krebs buffer. Aliquots were used to determine protein concentration (Biorad Assay) and phopholipase activity. […] Lipid extraction followed by thin-layer chromatography (Negre-Aminou et al., J Neurochem 67:2599-2608 (1996)) isolated the reaction product (identified by co-migration with AA standard), which was then scraped off the plates and analyzed in a scintillation spectrometer (Beckman). In some experiments, especially those involving ^14C-AA-phosphatidylinositol as substrate, the diacylglycerol-containing band (identified by co-migration of standard) also was scraped and counted in order to measure phospholipase C (PLC) activity.

On to “thrombin: potent growth cone repellent; commercially available thrombin (Sigma); rat thrombin in Boyden assays”, for which the “effect on GCP detachment from laminin” value in the data set with GCPs plated on laminin (20 min at 37° C., cytochalasin D 1 μM) is on record as “detached from the substratum in a dose-dependent maaner”. In addition, the “growth cones detached from laminin” value with GCPs plated on laminin (same thrombin concentrations as cPLA2 assays, in presence of calcium, controls 17%) was “about 46%”. Further, in the data set with protein kinase C (PKC), the “stimulation of MARCKS and GAP43 phosphorylation” value was “stimulates MARCKS and GAP43 phosphorylation”. In addition, the “effect on cell migration across the membrane” value in the data set with MAT-Lu cells (200 nM in lower well, 4 hrs, serum-free medium) is listed as “almost completely suppresses cell migration across the membrane”. In addition, the “Mat-Lu cells crossing filter in % of control +/− SEM” value in the data set on MAT-Lu cells (Control column (no IGF-1)) was 30.9 +/− 5.7 % of control. In the data set on MAT-Lu cells (IGF-1 (0.75 nM)), the “Mat-Lu cells crossing filter in % of control +/− SEM” value was 38 +/− 9.2 % of control. Moreover, the “decrease in control and IGF-1-induced migration across the membrane” value in the data set with MAT-Lu cells (at 200 nM) was 70-80%. For the same substance, in the data set on PC-3M-MM2 cells, the “effect on cell motility” value was “potent inhibitor of cell motility”. Further, in the data set with phospholipase C, the “effect on DAG release from PI / phospholipase C (words)” value is on record as “reduced DAG release rather than stimulating it”. In the data set with phospholipase C (listed as Thrombin), the “effect on DAG release from PI / phospholipase C (words)” value is “did not activate phospholipase C in MAT-Lu cells”. For the same substance, in the data set with cPLA2 [1], the “stimulation of cPLA2, PC substrate” value was “over 100 fold”; the “stimulation of cPLA2, PE substrate” value is “about 30 fold”; the “stimulation of cPLA2, PI substrate” value is “over 100 fold”. The “increase of PLA2 activity (AA release), PE substrate” value in the data set on cPLA2 [2] was 40-50 fold.
